{
  "source": "patent US12052991B2",
  "about": "“Substituted pyridinyloxybenzenes and salts thereof and use thereof as herbicidal agents” (Bayer Aktiengesellschaft, priority 2018, dated 2024)",
  "assay_type_in_all_cases": "in vivo",
  "key": {"viola tricolor (VIOTR)": {"test_system": "viola tricolor (VIOTR)", "assay": "Herbicidal pre-emergence action, test D, single sowings (Table D7)", "conditions": "dosage 80 g/ha, scored after about 3 weeks", "description": "(§1) Seeds of monocotyledonous and dicotyledonous weed plants were laid out in plastic or organic plant pots (single sowings with one species of mono- or dicotyledonous weed plant per pot) and covered with soil. The compounds of the invention, formulated in the form of wettable powders (WP) or as emulsion concentrates (EC), were then applied to the surface of the covering soil as aqueous suspension or emulsion with addition of 0.5% additive at a water application rate equivalent to 600 l/ha (converted). After the treatment, the pots were placed in a greenhouse and kept under good growth conditions for the test plants. After about 3 weeks, the effect of the preparations was scored visually in comparison with untreated controls as percentages. For example, 100% activity=the plants have died, 0% activity=like control plants. Tables D1 to D8 below show the effects of selected compounds of the general formula (I) according to Table 1 on various harmful plants and an application rate corresponding to 80 g/ha, which were obtained by the experimental procedure mentioned above."}, "[1]": {"test_system": "Matricaria inodora (MATIN)", "assay": "Herbicidal pre-emergence action, test C (Table C7)", "conditions": "visual scoring after about 3 weeks, 100% = plants have died, 0% = like control plants", "in_short": "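Visual scoring after about 3 weeks in the greenhouse gave % activity relative to untreated controls, 100% meaning plants died. Compounds, as WP or EC with 0.5% additive, had been applied to covering soil at 1280 or 320 g/ha in 600 L/ha water.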"}, "Veronica persica (VERPE)": {"test_system": "Veronica persica (VERPE)", "assay": "Herbicidal pre-emergence action, test D, single sowings (Table D8)", "conditions": "dosage 80 g/ha, scored after about 3 weeks", "description": "as §1"}, "Setaria viridis (SETVI)": {"test_system": "Setaria viridis (SETVI)", "assay": "Herbicidal pre-emergence action, test D, single sowings (Table D3)", "conditions": "dosage 80 g/ha, scored after about 3 weeks", "description": "as §1"}, "[2]": {"test_system": "soybean (GLXMA, var. Sultana), wheat (TRZAS, var. Triso) and corn (ZEAMX, var. Aventura)", "assay": "Pre-emergence crop plant compatibility, summary of Table E1", "conditions": "applied pre-emergence to soybean, wheat and corn at 80 g of active ingredient per hectare; summary in words", "description": "as §1, with “crop” for “weed”, “placed” for “laid out”, “pots” for “pots (single sowings with one species of mono- or dicotyledonous weed plant per pot)”, “plants.” for “plants. Tables D1 to D8 below show the effects of selected compounds of the general formula (I) according to Table 1 on various harmful plants and an application rate corresponding to 80 g/ha, which were obtained by the experimental procedure mentioned above.”"}, "[3]": {"test_system": "corn (ZEAMX, var. Aventura)", "assay": "Pre-emergence crop plant compatibility (Table E1)", "conditions": "dosage 80 g/ha, scored after about 3 weeks, 0% = like control plants", "description": "as §1, with “crop” for “weed”, “placed” for “laid out”, “pots” for “pots (single sowings with one species of mono- or dicotyledonous weed plant per pot)”, “plants.” for “plants. Tables D1 to D8 below show the effects of selected compounds of the general formula (I) according to Table 1 on various harmful plants and an application rate corresponding to 80 g/ha, which were obtained by the experimental procedure mentioned above.”"}, "[4]": {"test_system": "wheat (TRZAS, var. Triso)", "assay": "Pre-emergence crop plant compatibility (Table E1)", "conditions": "dosage 80 g/ha, scored after about 3 weeks, 0% = like control plants", "description": "as §1, with “crop” for “weed”, “placed” for “laid out”, “pots” for “pots (single sowings with one species of mono- or dicotyledonous weed plant per pot)”, “plants.” for “plants. Tables D1 to D8 below show the effects of selected compounds of the general formula (I) according to Table 1 on various harmful plants and an application rate corresponding to 80 g/ha, which were obtained by the experimental procedure mentioned above.”"}, "[5]": {"test_system": "soybean (GLXMA, var. Sultana)", "assay": "Pre-emergence crop plant compatibility (Table E1)", "conditions": "dosage 80 g/ha, scored after about 3 weeks, 0% = like control plants", "description": "as §1, with “crop” for “weed”, “placed” for “laid out”, “pots” for “pots (single sowings with one species of mono- or dicotyledonous weed plant per pot)”, “plants.” for “plants. Tables D1 to D8 below show the effects of selected compounds of the general formula (I) according to Table 1 on various harmful plants and an application rate corresponding to 80 g/ha, which were obtained by the experimental procedure mentioned above.”"}, "[6]": {"test_system": "Abutilon theophrasti (ABUTH)", "assay": "Herbicidal pre-emergence action, test D, single sowings (Table D4)", "conditions": "dosage 80 g/ha, scored after about 3 weeks", "description": "as §1"}, "[7]": {"test_system": "Matricaria inodora (MATIN)", "assay": "Herbicidal post-emergence action (Table B7)", "conditions": "1280 g/ha; rated visually after about 3 weeks; 100% = plants have died, 0% = like control plants", "in_short": "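Post-emergence spray, one-leaf stage (2–3 wk after sowing), sandy loam, greenhouse. WP/EC in water + 0.5% additive, 600 L/ha, 1280 or 320 g/ha. Visual % activity vs untreated after ~3 wk (0% = like control, 100% = plants dead).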"}, "[8]": {"test_system": "Digitaria sanguinalis (DIGSA)", "assay": "Herbicidal pre-emergence action, test D, single sowings (Table D2)", "conditions": "80 g/ha; scored visually after about 3 weeks; 100% = plants have died, 0% = like control plants", "description": "as §1"}},
  "data": [
    {"smiles": "Fc1cc(Cl)cnc1Oc1cccc(F)c1-c1cc(C(F)F)no1", "note": "[Example 1-19]", "values": [
      {"measurement": "Pre-emergence action against viola tricolor (VIOTR)", "setting": "viola tricolor (VIOTR)", "result": 100, "unit": "%"},
      {"measurement": "Pre-emergence action against Matricaria inodora (MATIN)", "setting": "[1]; dosage 320 g/ha", "result": 100, "unit": "%"},
      {"measurement": "Pre-emergence action against Matricaria inodora (MATIN)", "setting": "[1]; dosage 1280 g/ha", "result": 100, "unit": "%"},
      {"measurement": "Pre-emergence action against Veronica persica (VERPE)", "setting": "Veronica persica (VERPE)", "result": 100, "unit": "%"},
      {"measurement": "Pre-emergence action against Setaria viridis (SETVI)", "setting": "Setaria viridis (SETVI)", "result": 100, "unit": "%"},
      {"measurement": "crop plant tolerance in comparison with structurally similar pyrimidinyloxybenzenes (US 2016/333000 Ex. Nos. 53 and 144)", "setting": "[2]", "result": "significantly improved crop plant tolerance"},
      {"measurement": "Crop plant compatibility in pre-emergence, ZEAMX (damage to corn)", "setting": "[3]", "result": 10, "unit": "%"},
      {"measurement": "Crop plant compatibility in pre-emergence, TRZAS (damage to wheat)", "setting": "[4]", "result": 30, "unit": "%"},
      {"measurement": "Crop plant compatibility in pre-emergence, GLXMA (damage to soybean)", "setting": "[5]", "result": 20, "unit": "%"},
      {"measurement": "Pre-emergence action against Abutilon theophrasti (ABUTH)", "setting": "[6]", "result": 100, "unit": "%"},
      {"measurement": "Post-emergence action against Matricaria inodora (MATIN)", "setting": "[7]", "result": 100, "unit": "%"},
      {"measurement": "Pre-emergence action against Digitaria sanguinalis (DIGSA)", "setting": "[8]", "result": 100, "unit": "%"}
    ]}
  ]
}
